# Numbers after ± are expanded uncertainties.
# What was measured:
# [1] = 101.3 kPa, Liquid; for viscosity: Capillary tube (Ostwald / Ubbelohde) method; for mass density: Pycnometric method
# [2] = mn = molality of the nth substance listed, in mol/kg; settings: 101.3 kPa, Liquid, m2 = 0; for viscosity: Capillary tube (Ostwald / Ubbelohde) method; for mass density: Pycnometric method
viscosity ([1]; 275.15 K) [mPa·s],mass density ([1]; 275.15 K) [kg/m3],viscosity ([1]; 277.15 K) [mPa·s],mass density ([1]; 277.15 K) [kg/m3],viscosity ([1]; 279.15 K) [mPa·s],mass density ([1]; 279.15 K) [kg/m3],viscosity ([2]; 275.15 K) [mPa·s],mass density ([2]; 275.15 K) [kg/m3],viscosity ([2]; 277.15 K) [mPa·s],mass density ([2]; 277.15 K) [kg/m3],viscosity ([2]; 279.15 K) [mPa·s],mass density ([2]; 279.15 K) [kg/m3],SMILES
1.674 ± 0.036,999.94 ± 0.92,1.567 ± 0.034,999.97 ± 0.92,1.472 ± 0.032,999.94 ± 0.92,–,–,–,–,–,–,O [water]
–,–,–,–,–,–,1.674 ± 0.036,999.94 ± 0.92,1.567 ± 0.034,999.97 ± 0.92,1.472 ± 0.032,999.94 ± 0.92,O [water] + NC(=O)c1cccnc1
–,–,–,–,–,–,1.674 ± 0.036,999.94 ± 0.92,1.567 ± 0.034,999.97 ± 0.92,1.472 ± 0.032,999.94 ± 0.92,O [water] + O=C(O)c1cccnc1

# Reference: the NIST ThermoML archive (doi:10.1016/j.jct.2014.02.024)
